Assay results published in patent US7491794B2, “Macrocyclic compounds as inhibitors of viral replication” (Intermune, Inc., priority 2003, dated 2009).

Tests used:
[1] = tested on: HCV sub-genomic replicon, GS4.3; experiment: Quantitation by ELISA of NPTII in the HCV sub-genomic replicon, GS4.3, Section C; format: cell-based; conditions: Hepatitis C virus; GS4.3 cells, 72 h incubation; read-out: EC50
Text: Quantitation by ELISA of the selectable marker protein, Neomycin phosphotransferase II (NPTII) in the HCV Sub-Genomic Replicon, GS4.3
The HCV sub-genomic replicon (1377/NS3-3′, accession No. AJ242652), stably maintained in HuH-7 hepatoma cells, was created by Lohmann et al. Science 285: 110-113 (1999). The replicon-containing cell culture, designated GS4.3, was obtained from Dr. Christoph Seeger of the Institute for Cancer Research, Fox Chase Cancer Center, Philadelphia, Pa.
GS4.3 cells were maintained at 37° C., 5% CO2, in DMEM (Gibco 11965-092) supplemented with L-glutamine 200 mM (100×) (Gibco25030-081), non-essential amino acids (NEAA)(Biowhittaker 13-114E), heat-inactivated (HI) Fetal Bovine Serum(FBS)(Hyclone SH3007.03) and 750 μg/ml geneticin (G418)(Gibco 10131-035). Cells were sub-divided 1:3 or 4 every 2-3 days.
24 h prior to the assay, GS4.3 cells were collected, counted, and plated in 96-well plates (Costar 3585) at 7500 cells/well in 100 μl standard maintenance medium (above) and incubated in the conditions above. To initiate the assay, culture medium was removed, cells were washed once with PBS (Gibco 10010-023) and 90 μl Assay Medium (DMEM, L-glutamine, NEAA, 10% HI FBS, no G418) was added. Inhibitors were made as a 10× stock in Assay Medium, (3-fold dilutions from 10 μM to […] final concentration, final DMSO concentration 1%), 10 μl were added to duplicate wells, plates were rocked to mix, and incubated as above for 72 h.
An NPTII Elisa kit was obtained from AGDIA, Inc. (Compound direct ELISA test system for Neomycin Phosphotransferase II, PSP 73000/4800). Manufacturer's instructions were followed, with some modifications. 10×PEB-1 lysis buffer was made up to include 500 μM PMSF (Sigma P7626, 50 mM stock in isopropanol). After 72 h incubation, cells were washed once with PBS and 150 μl PEB-1 with PMSF was added per well. Plates were agitated vigorously for 15 minutes, room temperature, then frozen at −70° C. Plates were thawed, lysates were mixed thoroughly, and 100 μl were applied to an NPTII Elisa plate. A standard curve was made. Lysate from DMSO-treated control cells was pooled, serially diluted with PEB-1 with PMSF, and applied to duplicate wells of the ELISA plate, in a range of initial lysate amount of 150u1-2.5 ul. In addition, 100 μl buffer alone was applied in duplicate as a blank. Plates were sealed and gently agitated at room temperature for 2 h. Following capture incubation, the plates were washed 5×300 μl with PBS-T (0.5% Tween-20, PBS-T was supplied in the ELISA kit). For detection, a 1× dilution of enzyme conjugate diluent MRS-2 (5×) was made in PBS-T, into which 1:100 dilutions of enzyme conjugates A and B were added, as per instructions. Plates were resealed, and incubated with agitation, covered, room temperature, for 2 h. The washing was then repeated and 100 μl of room temperature TMB substrate was added. After approximately 30 minutes incubation (room temperature, agitation, covered), the reaction was stopped with 50 μl 3M sulfuric acid. Plates were read at 450 nm on a Molecular Devices Versamax plate reader.
Inhibitor effect was expressed as a percentage of DMSO-treated control signal, and inhibition curves were calculated using a 4-parameter equation: y=A+((B−A)/(1+((C/x)^D))), where C is half-maximal activity or EC50.

[2] = target: T1, NS3-NS4 protease (Hepatitis C virus genotype 1a, UniProt P27958); experiment: NS3-NS4 protease assay / NS3 inhibition assay, Section C; format: biochemical; conditions: read-out: NS3-NS4 IC50
T1 construct: Recombinant E. coli or Baculovirus full-length NS3 was diluted to 3.33 μM with assay buffer; made in house; host or cells: E. coli or baculovirus (BV) system
T1 sequence (P27958 1027-1657): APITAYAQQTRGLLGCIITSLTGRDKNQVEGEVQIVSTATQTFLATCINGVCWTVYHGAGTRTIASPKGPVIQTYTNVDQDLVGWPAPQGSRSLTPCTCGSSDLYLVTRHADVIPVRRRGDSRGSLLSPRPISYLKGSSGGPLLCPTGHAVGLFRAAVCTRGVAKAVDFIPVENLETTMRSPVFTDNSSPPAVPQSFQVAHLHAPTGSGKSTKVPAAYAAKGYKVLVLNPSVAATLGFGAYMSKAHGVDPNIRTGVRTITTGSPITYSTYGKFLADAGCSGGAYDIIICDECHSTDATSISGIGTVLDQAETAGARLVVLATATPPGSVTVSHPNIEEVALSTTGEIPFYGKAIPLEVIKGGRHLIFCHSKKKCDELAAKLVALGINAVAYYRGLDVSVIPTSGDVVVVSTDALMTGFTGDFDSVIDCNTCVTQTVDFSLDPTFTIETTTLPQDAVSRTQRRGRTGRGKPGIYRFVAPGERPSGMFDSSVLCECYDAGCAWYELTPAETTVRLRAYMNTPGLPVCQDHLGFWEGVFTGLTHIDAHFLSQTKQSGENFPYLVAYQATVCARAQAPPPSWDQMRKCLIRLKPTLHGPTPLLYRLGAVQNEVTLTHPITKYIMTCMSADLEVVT
Description: NS3 complex formation with NS4A-2.
Recombinant E. coli or Baculovirus full-length NS3 was diluted to 3.33 μM with assay buffer and transfered material to an eppendorf tube and place in water bath in 4° C. refrigerator. The appropriate amount of NS4A-2 to 8.3 mM in assay buffer was added to equal the volume of NS3 in step 2.1.1 (conversion factor −3.8 mg/272 μL assay buffer). The material was transferred to an eppendorf tube and place in water bath in 4° C. refrigerator.
After equilibration to 4° C., equal volumes of NS3 and NS4A-2 solutions were combined in an eppendorf tube, mix gently with a manual pipettor, and incubate mixture for 15 minutes in the 4° C. water bath. Final concentrations in the mixture are […] NS3, 4.15 mM NS4A-2 (2485-fold molar excess NS4A-2).
After 15 minutes at 4° C., the NS3/NS4A-2 eppendorf tube was removed and place it in a room temperature water bath for 10 minutes. NS3/NS4A-2 was alliquoted at appropriate volumes and store at −80° C. (E. coli NS3 run at 2 nM in assay, aliquot at 25 μL. BV NS3 run at 3 nM in assay, aliquot at 30 μL).
Step 2.2.5. Sample compounds were dissolved to 10 mM in DMSO then diluted to 2.5 mM (1:4) in DMSO.
Step 2.2.6. The E. coli. NS3/NS4A-2 was diluted to 4 nM NS3 (1:417.5 of […] stock−18 μL 1.67 μM stock+7497 μL assay buffer). The BV NS3/NS4A-2 was diluted to 6 nM NS3 (1:278.3 of 1.67 μM stock−24 μL 1.67 μM stock+6655 μL assay buffer).
Step 2.2.7. Using the manual multichannel pipettor, and being careful not to introduce bubbles into the plate, 50 μL assay buffer were added to wells A01-H01 of a black Costar 96-well polypropylene storage plate.
Step 2.2.8. Using the manual multichannel pipettor, and being careful not to introduce bubbles into the plate, 50 μL of diluted NS3/NS4A-2 from step 2.2.6 were added to wells A02-H12 of plate in step 2.2.7.
Step 2.2.9. Using the manual multichannel pipettor, and being careful not to introduce bubbles into the plate, 25 μL of the wells in drug dilution plate in step 2.2.5 were transferred to corresponding wells in assay plate in step 2.2.8. The tips on multichannel pipettor were changed for each row of compounds transferred.
Step 2.2.10. Using the manual multichannel pipettor, and being careful not to introduce bubbles into the plate, the contents of the wells from the assay plate in step 2.2.9 were mixed by aspirating and dispensing 35 μL of the 75 μL in each well five times. The tips on the multichannel pipettor were changed for each row of wells mixed.
Step 2.2.11. The plate was covered with a polystyrene plate lid, and the plate from step 2.2.10 containing NS3 protease and sample compounds was pre-incubated 10 minutes at room temperature.
While the plate from step 2.2.11 was pre-incubating, the RETS1 substrate was diluted in a 15 mL polypropylene centrifuge tube. The RETS1 substrate was diluted to 8 μM (1:80.75 of 646 μM stock−65 μL 646 μM stock+5184 μL assay buffer).
After the plate in step 2.2.11 was done pre-incubating, and using the manual multichannel, 25 μL of substrate were added to all wells on the plate. The contents of the wells of plate were quickly mixed, as in step 2.2.10, but mixing 65 μL of the 100 μL in the wells.
The plate was read in kinetic mode on the Molecular Devices SpectraMax Gemini XS plate reader. Reader settings: Read time: 30 minutes, Interval: 36 seconds, Reads: 51, Excitation λ: 335 nm, Emission λ: 495 nm, cutoff: 475 nm, Automix: off, Calibrate: once, PMT: high, Reads/well: 6, Vmax pts: 21 or 28/51 depending on length of linearity of reaction.
IC50s were determined using a four parameter curve fit equation, and converted to Ki's using the following Km's:
where Ki=IC50/(1+[S]/Km))

| Compound | EC50 [1] | IC50 [2] |
| --- | --- | --- |
| CC(C)(C)OC(=O)N[C@H]1CCCCC/C=C\[C@@H]2C[C@@]2(C(=O)NS(=O)(=O)N2CCOCC2)NC(=O)[C@@H]2C[C@@H](OC(=O)N3Cc4ccccc4C3)CN2C1=O [Compound 104, (1S,4R,6S,14S,18R)-1,3-Dihydro-isoindole-2-carboxylic acid 14-tert-butoxycarbonylamino-4-(morpholinosulfonyl-aminocarbonyl)-2,15-dioxo-3,16-diaza-tricyclo[14.3.0.0^4,6]nonadec-7-en-18-yl ester] | < 100 nM | < 100 nM |
| CC(C)(C)OC(=O)N[C@H]1CCCCC/C=C\[C@@H]2C[C@@]2(C(=O)NS(=O)(=O)N2CCCC2)NC(=O)[C@@H]2C[C@@H](OC(=O)N3CCc4ccccc4C3CN3CCCCC3)CN2C1=O (stereo partly drawn) [Compound 109, (1S,4R,6S,14S,18R)-1-Piperidin-1-ylmethyl-3,4-dihydro-1H-isoquinoline-2-carboxylic acid 14-tert-butoxycarbonylamino-2,15-dioxo-4-(pyrrolidino-sulfonylaminocarbonyl)-3,16-diaza-tricyclo[14.3.0.0^4,6]nonadec-7-en-18-yl ester] | < 1000 nM | < 100 nM |
| CC(C)(C)OC(=O)N[C@H]1CCCCC/C=C\[C@@H]2C[C@@]2(C(=O)NS(N)(=O)=O)NC(=O)[C@@H]2C[C@@H](OC(=O)N3Cc4ccccc4C3)CN2C1=O [Compound 122, (1S,4R,6S,14S,18R)-1,3-Dihydro-isoindole-2-carboxylic acid 14-tert-butoxycarbonylamino-4-(aminosulfonyl-aminocarbonyl)-2,15-dioxo-3,16-diaza-tricyclo[14.3.0.0^4,6]nonadec-7-en-18-yl ester] | < 100 nM | < 100 nM |
| CC(C)(C)OC(=O)N[C@H]1CCCCC/C=C\[C@@H]2C[C@@]2(C(=O)NS(=O)(=O)N2CCCC2)NC(=O)[C@@H]2C[C@@H](OC(=O)N3Cc4ccc(Cl)cc4C3)CN2C1=O [Compound 115, (1S,4R,6S,14S,18R)-5-Chloro-1,3-Dihydro-isoindole-2-carboxylic acid 14-tert-butoxycarbonylamino-4-(pyrrolidino-sulfonyl-aminocarbonyl)-2,15-dioxo-3,16-diaza-tricyclo[14.3.0.0^4,6]nonadec-7-en-18-yl ester] | < 100 nM | < 100 nM |
| CC(C)(C)OC(=O)N[C@H]1CCCCC/C=C\[C@@H]2C[C@@]2(C(=O)NS(=O)(=O)Nc2ccc(C#N)cc2)NC(=O)[C@@H]2C[C@@H](OC(=O)N3Cc4ccccc4C3)CN2C1=O [Compound 131, (1S,4R,6S,14S,18R)-1,3-Dihydro-isoindole-2-carboxylic acid 14-tert-butoxycarbonylamino-4-(4-cyanophenylaminosulfonyl-aminocarbonyl)-2,15-dioxo-3,16-diaza-tricyclo[14.3.0.0^4,6]nonadec-7-en-18-yl ester] | < 100 nM | < 100 nM |
| CC(C)(C)OC(=O)N[C@H]1CCCCC/C=C\[C@@H]2C[C@@]2(C(=O)NS(=O)(=O)Nc2ccc(Cl)cc2)NC(=O)[C@@H]2C[C@@H](OC(=O)N3Cc4ccccc4C3)CN2C1=O [Compound 128, (1S,4R,6S,14S,18R)-1,3-Dihydro-isoindole-2-carboxylic acid 14-tert-butoxycarbonylamino-4-(4-chlorophenylaminosulfonyl-aminocarbonyl)-2,15-dioxo-3,16-diaza-tricyclo[14.3.0.0^4,6]nonadec-7-en-18-yl ester] | < 100 nM | < 100 nM |
| CN(C)S(=O)(=O)NC(=O)[C@@]12C[C@H]1/C=C\CCCCC[C@H](NC(=O)OC(C)(C)C)C(=O)N1C[C@H](OC(=O)N3Cc4ccc(Cl)cc4C3)C[C@H]1C(=O)N2 [Compound 113, (1S,4R,6S,14S,18R)-5-Chloro-1,3-Dihydro-isoindole-2-carboxylic acid 14-tert-butoxycarbonylamino-4-(N,N-dimethylsulfonyl-aminocarbonyl)-2,15-dioxo-3,16-diaza-tricyclo[14.3.0.0^4,6]nonadec-7-en-18-yl ester] | < 100 nM | < 100 nM |
| CC(C)(C)OC(=O)N[C@H]1CCCCC/C=C\[C@@H]2C[C@@]2(C(=O)NS(=O)(=O)NC2CCCC2)NC(=O)[C@@H]2C[C@@H](OC(=O)N3Cc4ccccc4C3)CN2C1=O [Compound 134, (1S,4R,6S,14S,18R)-1,3-Dihydro-isoindole-2-carboxylic acid 14-tert-butoxycarbonylamino-4-(cyclopentylaminosulfonyl-aminocarbonyl)-2,15-dioxo-3,16-diaza-tricyclo[14.3.0.0^4,6]nonadec-7-en-18-yl ester] | < 100 nM | < 100 nM |
| CC(C)(C)OC(=O)N[C@H]1CCCCC/C=C\[C@@H]2C[C@@]2(C(=O)NS(=O)(=O)NC2CC2)NC(=O)[C@@H]2C[C@@H](OC(=O)N3Cc4ccccc4C3)CN2C1=O [Compound 102] | < 100 nM | < 100 nM |
